Reference: PMC8580050, “Improvement of the antimicrobial potency, pharmacokinetic and pharmacodynamic properties of albicidin by incorporation of nitrogen atoms” (Chemical Science, 2021)
In brackets after ≈: the same amount, converted by molar mass.

Columns and labels:
M. luteus DSM1790 = test: MIC determination (broth microdilution); assay type: cell-based, Micrococcus luteus; conditions: Micrococcus luteus, DSM1790
Experimental: (§1) 1.1.1 In vitro experiments
(§2) Determination of Minimal inhibitory concentrations (MIC)
(§3) Approved Standard M07-A9.1
(§4) CFU mL-1. […] Albicidin and […]
(§5) and serially diluted in DMSO (100%). […]
(§6) in 0.1 N HCL, respectively.
(§7) One row of each well plate served as a […]
(§8) sterility control (only MHB II-media). […]
(§9) adding 5 µL DMSO to several wells. […]
(§10) for growth inhibition by naked eye.
(§11) Microorganisms and Cell Cultures (DSMZ): […]

in vitro = conditions: plasma, pH 7.4
Experimental: Determination of plasma stability
Human and murine plasma aliquots (Sigma-Aldrich, Taufkirchen, Germany) were thawed and subsequently centrifuged at 3000 rpm for 10 min at 4°C. Resulting supernatant was diluted in the same volume of phosphate buffer (pH 7.4) to obtain a plasma concentration of 50% (v/v). Stock solutions of […]
concentration of 20 µM (5% DMSO). Following incubation at 37°C ice-cold methanol containing 30% […]
were centrifuged at 4000 rpm for 20 min at 4°C and 100 µL of supernatant were directly transferred to a fresh MS-vial. Samples were analyzed by LC/MS-MS experiments. Quantification of remaining compounds was performed by an external calibration curve of standard solutions in the range of […]

[1] = system: Salmonella Kentucky (ciprofloxacin susceptible clinical isolate); test: MIC, extended panel; assay type: cell-based; conditions: Salmonella enterica
Experimental: as §1, §2, §3, §4, §5, §6, §7, §8, §9, §10, §11
(§12) Dr. Werner (Robert-Koch-Institut, Wernigerode, Germany): […]

[2] = system: E. coli (ciprofloxacin susceptible clinical isolate); test: MIC, extended panel; assay type: cell-based; conditions: Escherichia coli
Experimental: as §1, §2, §3, §4, §5, §6, §7, §8, §9, §10, §11, §12

[3] = system: Salmonella Kentucky (ciprofloxacin resistant clinical isolate); test: microbe, parasite or virus in culture; assay type: cell-based; conditions: Salmonella enterica
Experimental: as §1, §2, §3, §4, §5, §6, §7, §8, §9, §10, §11, §12

[4] = system: K. pneumoniae (ciprofloxacin resistant clinical isolate); test: microbe, parasite or virus in culture; assay type: cell-based; conditions: Klebsiella pneumoniae
Experimental: as §1, §2, §3, §4, §5, §6, §7, §8, §9, §10, §11, §12

[5] = system: A. baumannii (ciprofloxacin resistant isolate); test: microbe, parasite or virus in culture; assay type: cell-based, Acinetobacter baumannii; conditions: Acinetobacter baumannii
Experimental: as §1, §2, §3, §4, §5, §6, §7, §8, §9, §10, §11, §12
(§13) for the following 11 pathogenic isolates: […]

[6] = system: P. aeruginosa (ciprofloxacin resistant clinical isolate); test: microbe, parasite or virus in culture; assay type: cell-based; conditions: Pseudomonas aeruginosa
Experimental: as §1, §2, §3, §4, §5, §6, §7, §8, §9, §10, §11, §12, §13

[7] = system: E. faecium (ciprofloxacin resistant clinical isolate); test: microbe, parasite or virus in culture; assay type: cell-based; conditions: Enterococcus faecium
Experimental: as §1, §2, §3, §4, §5, §6, §7, §8, §9, §10, §11, §12, §13

[8] = system: S. aureus (ciprofloxacin resistant clinical isolate); test: microbe, parasite or virus in culture; assay type: cell-based, Staphylococcus aureus; conditions: Staphylococcus aureus
Experimental: as §1, §2, §3, §4, §5, §6, §7, §8, §9, §10, §11, §12, §13

[9] = Cell proliferation assay (HepG2 cells); conditions: human
Experimental: (§14) Cell proliferation assay (HepG2 cells)
(§15) The assay was performed by the company Eurofins (Taiwan). Cytotoxicity was representatively
(§16) according to a protocol by Ansar et al.27 This is in line with previously published cytotoxicity data on
(§17) GI = growth inhibition; TGI = total growth inhibition; LC = lethal concentration

HepG2 cells = test: in vitro; conditions: human
Experimental: as §14, §15, §16, §17

[10] = system: K. pneumoniae (ciprofloxacin susceptible clinical isolate); test: MIC, extended panel; assay type: cell-based, Klebsiella pneumoniae; conditions: Klebsiella pneumoniae
Experimental: as §1, §2, §3, §4, §5, §6, §7, §8, §9, §10, §11, §12

E. coli DSM 1116 = test: MIC determination (broth microdilution); assay type: cell-based, Escherichia coli; conditions: Escherichia coli, DSM1116
Experimental: as §1, §2, §3, §4, §5, §6, §7, §8, §9, §10, §11

[11] = system: S. aureus (ciprofloxacin susceptible clinical isolate); test: MIC, extended panel; assay type: cell-based; conditions: Staphylococcus aureus
Experimental: as §1, §2, §3, §4, §5, §6, §7, §8, §9, §10, §11, §12, §13

E. coli DNA gyrase = target: T1, E. coli DNA gyrase (Escherichia coli, UniProt P0AES4+P0AES6); test: E. coli gyrase supercoiling inhibition assay; assay type: biochemical; set-up: key: ↑: for stronger inhibition; ≈: for equal inhibition; ↓: for diminished inhibition compared to albicidin 1; conditions: constant concentration of 45 nM, compared to albicidin 1
T1 construct: purchased inspiralis Limited, Norwich, UK
T1 sequence (P0AES4 whole entry, one chain of several): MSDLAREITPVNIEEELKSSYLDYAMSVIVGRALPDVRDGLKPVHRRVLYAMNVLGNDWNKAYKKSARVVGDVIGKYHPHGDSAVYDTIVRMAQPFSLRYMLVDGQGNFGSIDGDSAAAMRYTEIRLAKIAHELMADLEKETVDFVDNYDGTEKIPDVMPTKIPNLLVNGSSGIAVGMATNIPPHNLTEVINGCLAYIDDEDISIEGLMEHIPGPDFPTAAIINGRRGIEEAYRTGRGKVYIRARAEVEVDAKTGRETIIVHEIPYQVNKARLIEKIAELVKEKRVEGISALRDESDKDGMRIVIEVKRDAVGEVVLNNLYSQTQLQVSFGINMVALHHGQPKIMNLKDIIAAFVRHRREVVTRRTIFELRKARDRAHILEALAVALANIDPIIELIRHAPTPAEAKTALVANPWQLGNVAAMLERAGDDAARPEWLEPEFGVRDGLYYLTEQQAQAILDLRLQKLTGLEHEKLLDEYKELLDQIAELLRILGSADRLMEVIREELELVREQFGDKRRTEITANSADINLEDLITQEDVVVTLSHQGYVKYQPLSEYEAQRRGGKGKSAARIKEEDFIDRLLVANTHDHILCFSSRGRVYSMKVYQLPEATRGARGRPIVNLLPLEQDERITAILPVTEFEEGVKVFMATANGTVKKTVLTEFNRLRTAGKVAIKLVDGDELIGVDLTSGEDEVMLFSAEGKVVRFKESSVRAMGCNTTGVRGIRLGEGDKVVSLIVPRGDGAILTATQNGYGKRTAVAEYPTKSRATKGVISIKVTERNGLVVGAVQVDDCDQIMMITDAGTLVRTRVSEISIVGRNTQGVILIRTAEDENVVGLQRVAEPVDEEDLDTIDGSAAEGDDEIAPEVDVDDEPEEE
Experimental: Escherichia coli Gyrase Supercoiling Inhibition Assay
loaded on an agarose gel.
2-15. […] Addition of DNA
All derivatives were tested at a concentration of […]

[12] = system: E. coli DSM 1116 + 50% Human Serum; test: MIC determination in presence of 50% human serum; assay type: cell-based; conditions: Escherichia coli, DSM1116
Source text: This investigation was completed by assessment of the antibacterial activity in presence of human plasma (50%) (Table 1), since high plasma protein binding can severely impair antibacterial activity and thus efficacy.
as §1, §2, §3, §4, §5, §6, §7, §8, §9, §10, §11

B. subtilis DSM 10 = test: MIC determination (broth microdilution); assay type: cell-based; conditions: Bacillus subtilis, DSM10
Experimental: as §1, §2, §3, §4, §5, §6, §7, §8, §9, §10, §11

E. coli BW25113 = test: MIC determination (broth microdilution); assay type: cell-based; conditions: Escherichia coli
Experimental: as §1, §2, §3, §4, §5, §6, §7, §8, §9, §10, §11

Formulation studies = assay type: physicochemical; conditions: DMSO/PEG400 (10 : 90), 10 mg ml-1
Experimental: of preclinical formulations in a final concentration of 10 mg ml-1. All experimental procedures were carried out in cooperation with Pharmacelsus GmbH (Saarbrucken, Germany) according to Table S6.
1.1.2 Tolerability assessment and pharmacokinetic study
In vivo tolerability studies as well as determinations of pharmacokinetic parameters were carried out in cooperation with Pharmacelsus GmbH (Saarbrucken, Germany).
For tolerability assessment adult male CD-1 mice (RjOrl:SWISS, 7 weeks old) were purchased from Janvier Labs (France). For pharmacokinetic studies 6 weeks old, male CD-1 mice (RjOrl:SWISS, Janvier Labs, France) were used. The animals were allowed to acclimatize for at least seven days before the start of experiments. Housing was realized in a temperature-controlled room (20-24°C) and mice were exposed to a 12h light/dark cycle. Mice had access to food and water ad libitum throughout the study.
All experimental procedures were approved by and conducted in accordance with the regulations of local Animal Welfare authorities (Landesamt für Gesundheit und Verbraucherschutz, Abteilung Lebensmittel- und Veterinärwesen, Saarbrücken, Germany).

M. phlei DSM 750 = test: MIC determination (broth microdilution); assay type: cell-based, Mycobacterium phlei; conditions: Mycolicibacterium phlei, DSM750
Experimental: as §1, §2, §3, §4, §5, §6, §7, §8, §9, §10

[13] = Pharmacokinetic study, i.v.; conditions: 50 mg kg^−1 i.v., after 24 h
[14] = system: E. faecium (ciprofloxacin susceptible clinical isolate); test: microbe, parasite or virus in culture; conditions: Enterococcus faecium
[15] = system: E. coli (ciprofloxacin resistant clinical isolate); test: microbe, parasite or virus in culture; assay type: cell-based, Escherichia coli; conditions: Escherichia coli
Experimental: as §1, §2, §3, §4, §5, §6, §7, §8, §9, §10, §11, §12

S. Typhimurium TA100 = test: MIC determination (broth microdilution); assay type: cell-based, Salmonella typhimurium; conditions: Salmonella enterica, TYPHIMURIUM
Experimental: as §1, §2, §3, §4, §5, §6, §7, §8, §9, §10, §11

[16] = system: P. aeruginosa (ciprofloxacin susceptible clinical isolate); test: MIC, extended panel; assay type: cell-based, Pseudomonas aeruginosa; conditions: Pseudomonas aeruginosa
Experimental: as §1, §2, §3, §4, §5, §6, §7, §8, §9, §10, §11, §12, §13

in vivo = conditions: male, CD-1, mouse, whole blood, iv, 50 mg/kg

Work on `COc1c(NC(=O)c2ccc(NC(=O)c3ccc(NC(=O)[C@H](Cc4c[nH]nn4)NC(=O)c4ccc(NC(=O)/C(C)=C/c5ccc(O)cc5)cc4)cc3)c(OC)c2O)ccc(C(=O)O)c1O` [Compound 2, AzaHis-albicidin] yielded an MIC (M. luteus DSM1790) of 1 µg/mL (≈ 1.13 µM), a half-life at 20 µM (in vitro; human) greater than 4 h and a half-life at 20 µM (in vitro; mouse) of 1.58 h. For the same compound, the MIC [1] was 0.063 µg/mL (≈ 0.0712 µM), the MIC [2] was 0.016 µg/mL (≈ 0.0181 µM) and the MIC [3] was 0.125 µg/mL (≈ 0.141 µM). It also gave an MIC [4] of no less than 128 µg/mL, an MIC [5] of 2 µg/mL (≈ 2.26 µM) and an MIC [6] of 8 µg/mL (≈ 9.04 µM). It also gave an MIC [7] of 64 µg/mL (≈ 72.3 µM), an MIC [8] of 0.5 µg/mL (≈ 0.565 µM) and a CC50 [9] greater than 16 µM. The GI50 [9] was greater than 16 µM, the “TGI (total growth inhibition)” value (HepG2 cells) was greater than 16 µM and the MIC [10] was 16 µg/mL (≈ 18.1 µM). For the same compound, the MIC (E. coli DSM 1116) was 0.016 µg/mL (≈ 0.0181 µM), the MIC [11] was 0.25 µg/mL (≈ 0.283 µM) and the “E. coli gyrase inhibition” value (E. coli DNA gyrase) was “≈”. The MIC [12] was 2 µg/mL, the MIC (B. subtilis DSM 10) was 0.125 µg/mL (≈ 0.141 µM) and the MIC (E. coli BW25113) was 0.016 µg/mL (≈ 0.0181 µM). For the same compound, the appearance in formulation (Formulation studies) was “clear solution”, the MIC (M. phlei DSM 750) was 2 µg/mL (≈ 2.26 µM) and the “plasma level as multiple of MIC for E. coli” value [13] was “higher than 5 times MIC”. It also gave an MIC [14] of 0.25 µg/mL (≈ 0.283 µM), an MIC [15] of 0.063 µg/mL (≈ 0.0712 µM) and an MIC (S. Typhimurium TA100) of 0.016 µg/mL (≈ 0.0181 µM). For the same compound, the MIC [16] was 4 µg/mL (≈ 4.52 µM) and the half-life (in vivo) was 10.1 h.
